We go through 18 molecules from patent US20260327214A1, “1,3,4-OXADIAZOLE DERIVATIVE COMPOUNDS AS HISTONE DEACETYLASE 6 INHIBITOR, AND USES THEREOF” (CHONG KUN DANG PHARMACEUTICAL CORP., priority 2022, published 2026).

The target in one experiment is T1, human recombinant HDAC1 (Homo sapiens, UniProt Q13547).
T1 construct: purchased Enzo Life Science BML-SE456
Briefly: HDAC1 enzyme activity inhibition test (HDAC Fluorometric Drug Discovery Kit). The conditions noted are these: 30° C., 60 minutes, 10 μM substrate. It counts as biochemical. Here is the method: (§1) The following experiment was conducted to confirm the HDAC6 selectivity of the compound represented by Chemical Formula I of the present invention through the HDAC1 and HDAC6 enzyme activity inhibition test.
(§2) HDAC enzyme activity was measured using HDAC Fluorometric Drug Discovery Kit (BML-AK511, 516) manufactured by Enzo Life Science. For the HDAC1 enzyme activity test, human recombinant HDAC1 (BML-SE456) was used as an enzyme source and Fluor de Lys-®-″SIRT1 (BNL-KI177) was used as a substrate. The 5-fold diluted compound was dispensed in a 96-well plate, 0.3 μg of enzyme and 10 μM substrate were added to each well and reacted at 30° C. for 60 minutes, and Fluor de Lys® Developer II(BML-KI176) was added and reacted for 30 minutes to complete the reaction. Then, the fluorescence value (Ex 360, Em 460) was measured using a multiplate reader (Flexstation 3, Molecular Device). The HDAC6 enzyme was tested using the same protocol as the HDAC1 enzyme activity test method employing human recombinant HDAC6 (382180) from Calbiochem. For the final result, each […] value was calculated using the GraphPad Prism 4.0 program.

For another experiment, the target named is T2, human recombinant HDAC6 (Homo sapiens, UniProt Q9UBN7).
T2 construct: purchased Calbiochem 382180
T2 sequence (Q9UBN7 1-1215): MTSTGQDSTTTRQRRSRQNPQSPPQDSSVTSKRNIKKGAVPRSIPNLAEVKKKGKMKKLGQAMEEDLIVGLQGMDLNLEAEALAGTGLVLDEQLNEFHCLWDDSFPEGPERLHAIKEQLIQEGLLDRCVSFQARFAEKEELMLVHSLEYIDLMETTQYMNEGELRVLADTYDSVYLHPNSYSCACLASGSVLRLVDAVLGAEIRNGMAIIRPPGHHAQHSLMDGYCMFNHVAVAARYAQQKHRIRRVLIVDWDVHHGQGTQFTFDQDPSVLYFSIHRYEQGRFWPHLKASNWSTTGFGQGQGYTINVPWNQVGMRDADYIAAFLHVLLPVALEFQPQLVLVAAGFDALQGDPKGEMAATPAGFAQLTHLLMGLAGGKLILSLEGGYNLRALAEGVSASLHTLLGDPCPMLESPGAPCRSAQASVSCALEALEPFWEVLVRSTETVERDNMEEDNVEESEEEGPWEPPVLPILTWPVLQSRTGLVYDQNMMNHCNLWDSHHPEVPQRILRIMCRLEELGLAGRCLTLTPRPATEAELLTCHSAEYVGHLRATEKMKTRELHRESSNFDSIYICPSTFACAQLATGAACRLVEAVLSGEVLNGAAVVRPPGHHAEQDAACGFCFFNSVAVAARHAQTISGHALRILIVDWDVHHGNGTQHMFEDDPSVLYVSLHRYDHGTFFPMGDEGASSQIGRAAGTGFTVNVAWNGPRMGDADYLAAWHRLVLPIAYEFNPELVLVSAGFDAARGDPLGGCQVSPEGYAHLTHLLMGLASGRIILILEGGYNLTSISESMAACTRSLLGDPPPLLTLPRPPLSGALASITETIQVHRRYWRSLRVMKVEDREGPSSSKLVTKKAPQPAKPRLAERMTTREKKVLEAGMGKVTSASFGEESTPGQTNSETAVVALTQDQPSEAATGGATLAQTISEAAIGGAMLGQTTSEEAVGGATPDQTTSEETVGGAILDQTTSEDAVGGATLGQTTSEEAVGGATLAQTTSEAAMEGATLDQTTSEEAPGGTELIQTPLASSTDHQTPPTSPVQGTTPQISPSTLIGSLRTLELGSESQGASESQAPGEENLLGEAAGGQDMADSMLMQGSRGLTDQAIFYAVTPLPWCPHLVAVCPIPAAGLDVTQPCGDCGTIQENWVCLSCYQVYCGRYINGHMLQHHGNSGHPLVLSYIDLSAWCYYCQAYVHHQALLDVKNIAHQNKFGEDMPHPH
Briefly: HDAC6 enzyme activity inhibition test (HDAC Fluorometric Drug Discovery Kit). The conditions noted are these: for HDAC6 selectivity (fold): HDAC6 over HDAC1; for IC50: human recombinant HDAC6, same protocol as HDAC1. The class given is biochemical. As for the experimental part: as §1, §2

T1 sequence (Q13547 whole entry): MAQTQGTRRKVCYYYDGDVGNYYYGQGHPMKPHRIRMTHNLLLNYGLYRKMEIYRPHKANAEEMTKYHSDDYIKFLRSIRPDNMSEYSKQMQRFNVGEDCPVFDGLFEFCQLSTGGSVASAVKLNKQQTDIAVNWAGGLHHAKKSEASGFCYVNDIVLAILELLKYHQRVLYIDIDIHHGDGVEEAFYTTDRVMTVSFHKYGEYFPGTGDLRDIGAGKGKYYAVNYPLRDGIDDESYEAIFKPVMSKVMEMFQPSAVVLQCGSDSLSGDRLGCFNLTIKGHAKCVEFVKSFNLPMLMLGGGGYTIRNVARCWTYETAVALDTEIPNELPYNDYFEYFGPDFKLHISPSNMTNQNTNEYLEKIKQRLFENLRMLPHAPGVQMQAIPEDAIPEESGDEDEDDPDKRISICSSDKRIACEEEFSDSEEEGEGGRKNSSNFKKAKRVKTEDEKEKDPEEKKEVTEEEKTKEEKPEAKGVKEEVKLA

The term IC50 denotes the concentration that gives 50% inhibition. In the case of `CN1CCN(c2cccc(-c3nn(Cc4ccc(-c5nnc(C(F)F)o5)cn4)c(=O)o3)c2)CC1` [Compound 37, 3-[[5-[5-(difluoromethyl)-1,3,4-oxadiazol-2-yl]-2-pyridyl]methyl]-5-[3-(4-methylpiperazin-1-yl)phenyl]-1,3,4-oxadiazol-2-one], the IC50 at human recombinant HDAC1 is > 50 µM; on human recombinant HDAC6, 97.7 nM. In addition, on human recombinant HDAC6, the “HDAC6 selectivity (fold)” value was 512 fold.

With `CC(C)N1CCN(c2cccc(-c3nn(Cc4ccc(-c5nnc(C(F)F)o5)cn4)c(=O)o3)c2)CC1` [Compound 38, 3-[[5-[5-(difluoromethyl)-1,3,4-oxadiazol-2-yl]-2-pyridyl]methyl]-5-[3-(4-isopropylpiperazin-1-yl)phenyl]-1,3,4-oxadiazol-2-one], the IC50 at human recombinant HDAC1 is > 50 µM. Moreover, on human recombinant HDAC6, the “HDAC6 selectivity (fold)” value came to 988 fold and the half-inhibitory concentration (IC50) amounted to 50.6 nM.

With `O=c1oc(-c2cccc(N3CCN(C4CCC4)CC3)c2)nn1Cc1ccc(-c2nnc(C(F)F)o2)cn1` [Compound 39, 5-[3-(4-cyclobutylpiperazin-1-yl)phenyl]-3-[[5-[5-(difluoromethyl)-1,3,4-oxadiazol-2-yl]-2-pyridyl]methyl]-1,3,4-oxadiazol-2-one], on human recombinant HDAC1, the IC50 is > 50 µM. Further, on human recombinant HDAC6, the “HDAC6 selectivity (fold)” value worked out at 605 fold and the IC50 turned out to be 82.7 nM.

On to `O=c1oc(-c2cccc(N3CCN(C4COC4)CC3)c2)nn1Cc1ccc(-c2nnc(C(F)F)o2)cn1` [Compound 40, 3-[[5-[5-(difluoromethyl)-1,3,4-oxadiazol-2-yl]-2-pyridyl]methyl]-5-[3-[4-(oxetane-3-yl)piperazin-1-yl]phenyl]-1,3,4-oxadiazol-2-one], for which the IC50 at human recombinant HDAC1 was > 50 µM. Moreover, at human recombinant HDAC6, the “HDAC6 selectivity (fold)” value came out at 652 fold and the IC50 was 76.7 nM.

In the case of `CN1CCC(c2cccc(-c3nn(Cc4ccc(-c5nnc(C(F)F)o5)cn4)c(=O)s3)c2F)CC1` [Compound 41, 3-[[5-[5-(difluoromethyl)-1,3,4-oxadiazol-2-yl]-2-pyridyl]methyl]-5-[2-fluoro-3-(1-methyl-4-piperidyl)phenyl]-1,3,4-thiadiazol-2-one], the concentration for half-maximal inhibition (IC50) was > 50 µM at human recombinant HDAC1 and 55 nM at human recombinant HDAC6. Further, the “HDAC6 selectivity (fold)” value on human recombinant HDAC6 is 909 fold.

For `O=c1oc(-c2ccc3ccccc3n2)nn1Cc1ccc(-c2nnc(C(F)F)o2)cn1` [Compound 42, 3-[[5-[5-(difluoromethyl)-1,3,4-oxadiazol-2-yl]-2-pyridyl]methyl]-5-(2-quinolyl)-1,3,4-oxadiazol-2-one], the half-inhibitory concentration (IC50) on human recombinant HDAC1 was > 50 µM. Besides, on human recombinant HDAC6, the “HDAC6 selectivity (fold)” value came to 975 fold and the IC50 is 51.3 nM.

`O=c1sc(-c2ccccc2)nn1Cc1ccc(-c2nnc(C(F)F)o2)cn1` [Compound 43, 3-[[5-[5-(difluoromethyl)-1,3,4-oxadiazol-2-yl]-2-pyridyl]methyl]-5-phenyl-1,3,4-thiadiazol-2-one]: the IC50 at human recombinant HDAC1 was > 50 µM. Moreover, at human recombinant HDAC6, the “HDAC6 selectivity (fold)” value is reported as 359 fold and the IC50 is 139 nM.

For the molecule `O=c1sc(-c2cccs2)nn1Cc1ccc(-c2nnc(C(F)F)o2)cn1` [Compound 44, 3-[[5-[5-(difluoromethyl)-1,3,4-oxadiazol-2-yl]2-pyridyl]methyl]-5-(2-thienyl)-1,3,4-thiadiazol-2-one], the IC50 on human recombinant HDAC1 is > 50 µM; on human recombinant HDAC6 it was 71 nM. Also, the “HDAC6 selectivity (fold)” value at human recombinant HDAC6 is 704 fold.

Consider `FC(F)c1nnc(-c2ccc(Cn3nc(-c4ccccc4)oc3=S)nc2)o1` [Compound 45, 3-((5-(5-(difluoromethyl)-1,3,4-oxadiazol-2-yl)pyridin-2-yl)methyl)-5-phenyl-1,3,4-oxadiazol-2(3H)-thione], for which the IC50 on human recombinant HDAC1 is > 50 µM. Further, at human recombinant HDAC6, the “HDAC6 selectivity (fold)” value came out at 543 fold and the half-maximal inhibitory concentration (IC50) is 92 nM.

As for `FC(F)c1nnc(-c2ccc(Cn3nc(-c4ccccn4)oc3=S)nc2)o1` [Compound 46, 3-[[5-[5-(difluoromethyl)-1,3,4-oxadiazol-2-yl]-2-pyridyl]methyl]-5-(2-pyridyl)-1,3,4-oxadiazol-2-thione], on human recombinant HDAC1, the IC50 is > 50 µM. Moreover, at human recombinant HDAC6, the “HDAC6 selectivity (fold)” value came to 1171 fold and the IC50 was found to be 42.7 nM.

Turning to `Fc1cc(-c2nnc(C(F)F)o2)cnc1Cn1nc(-c2ccccn2)oc1=S` [Compound 47, 3-[[5-[5-(difluoromethyl)-1,3,4-oxadiazol-2-yl]-3-fluoro-2-pyridyl]methyl]-5-(2-pyridyl)-1,3,4-oxadiazol-2-thione], the IC50 on human recombinant HDAC1 was > 50 µM. At human recombinant HDAC6, the “HDAC6 selectivity (fold)” value is on record as 1548 fold and the IC50 worked out at 32.3 nM.

Take `Fc1cccc(-c2nn(Cc3ncc(-c4nnc(C(F)F)o4)cc3F)c(=S)o2)c1` [Compound 48, 3-[[5-[5-(difluoromethyl)-1,3,4-oxadiazol-2-yl]-3-fluoro-2-pyridyl]methyl]-5-(3-fluorophenyl)-1,3,4-oxadiazol-2-thione]: the IC50 on human recombinant HDAC1 was > 50 µM. Also, on human recombinant HDAC6, the “HDAC6 selectivity (fold)” value is 437 fold and the 50% inhibitory concentration (IC50) worked out at 114 nM.

With `O=c1sc(-c2ccccn2)nn1Cc1ccc(-c2nnc(C(F)F)o2)cn1` [Compound 49, 3-[[5-[5-(difluoromethyl)-1,3,4-oxadiazol-2-yl]-2-pyridyl]methyl]-5-(2-pyridyl)-1,3,4-thiadiazol-2-one], the IC50 at human recombinant HDAC1 was > 50 µM; at human recombinant HDAC6, 76.2 nM. Also, at human recombinant HDAC6, the “HDAC6 selectivity (fold)” value is reported as 656 fold.

Consider `FC(F)c1nnc(-c2ccc(Cn3nc(-c4cccs4)oc3=S)nc2)o1` [Compound 50, 3-[ [5-[5-(difluoromethyl) -1,3,4-oxadiazol-2-yl] -2-pyridyl]methyl] -5-(2-thienyl)-1,3,4-oxadiazol-2-thione], for which the IC50 at human recombinant HDAC1 was > 50 µM. On human recombinant HDAC6, the “HDAC6 selectivity (fold)” value stood at 588 fold and the IC50 was 85.1 nM.

Turning to `Fc1cc(-c2nnc(C(F)F)o2)cnc1Cn1nc(-c2cccs2)oc1=S` [Compound 51, 3-[[5-[5-(difluoromethyl)-1,3,4-oxadiazol-2-yl]-3-fluoro-2-pyridyl]methyl]-5-(2-thienyl)-1,3,4-oxadiazol-2-thione], the half-maximal inhibitory concentration (IC50) at human recombinant HDAC1 was > 50 µM. For the same molecule, on human recombinant HDAC6, the “HDAC6 selectivity (fold)” value amounted to 601 fold and the IC50 is 83.2 nM.

Turning to `FC(F)c1nnc(-c2ccc(Cn3nc(-c4cccnc4)oc3=S)nc2)o1` [Compound 52, 3-[[5-[5-(difluoromethyl)-1,3,4-oxadiazol-2-yl]-2-pyridyl]methyl]-5-(3-pyridyl)-1,3,4-oxadiazol-2-thione], the results for the IC50 on human recombinant HDAC1 and on human recombinant HDAC6 were > 50 µM and 106 nM, respectively. Moreover, the “HDAC6 selectivity (fold)” value at human recombinant HDAC6 worked out at 473 fold.

Turning to `Fc1cc(-c2nnc(C(F)F)o2)cnc1Cn1nc(-c2cnccn2)oc1=S` [Compound 53, 3-[[5-[5-(difluoromethyl)-1,3,4-oxadiazol-2-yl]-3-fluoro-2-pyridyl]methyl]-5-pyrazine-2-yl-1,3,4-oxadiazol-2-thione], the IC50 on human recombinant HDAC1 is > 50 µM. At human recombinant HDAC6, the “HDAC6 selectivity (fold)” value came out at 560 fold and the IC50 is 89.3 nM.

Take `O=c1sc(-c2ccccc2F)nn1Cc1ccc(-c2nnc(C(F)F)o2)cn1` [Compound 54, 3-[[5-[5-(difluoromethyl)-1,3,4-oxadiazol-2-yl]-2-pyridyl]methyl]-5-(2-fluorophenyl)-1,3,4-thiadiazol-2-one]: at human recombinant HDAC1, the 50% inhibitory concentration (IC50) is > 50 µM. Besides, on human recombinant HDAC6, the “HDAC6 selectivity (fold)” value came out at 444 fold and the IC50 was determined as 113 nM.
